System: Plasmodium falciparum
Experiment: GSK_TCMDC: Inhibition of Plasmodium falciparum 3D7 in whole erythrocytes, using parasite LDH activity as an index of growth.
Format: functional, organism-based
Settings: Plasmodium falciparum, 3D7

| SMILES | XC50 |
| --- | --- |
| COc1cccc2c(N/N=C/c3ccc([N+](=O)[O-])cc3)ccnc12 | 888 nM |
| CCN(CC)CCN(Cc1ccc(-c2ccc(C(F)(F)F)cc2)nc1)C(=O)Cn1cc(Cc2cnn(C)c2)c(=O)n2nc(-c3ccccc3)cc12 | 991 nM |
| CCN(CC)CCN(Cc1ccc(-c2ccc(C(F)(F)F)cc2)cc1)C(=O)Cn1c(CCc2cc(F)cc(F)c2F)nc(=O)c2ccccc21 | 756 nM |
| CC(=O)Nc1ccc(Nc2c3ccccc3nc3ccccc23)cc1 | 1020 nM |
| O=C(/C=C/c1ccc(Cl)c(Cl)c1)NCCCCCN1CCCN(C(=O)Nc2ccc(F)c(Cl)c2)CC1 | 799 nM |
| Oc1cc(NC[C@H]2CCC[C@@H]2NCc2cc(Br)cc(Br)c2)nc2ccccc12 | 678 nM |
| CCC(C)(C)n1c(C)cc2c3c(N)nc(N)nc3ccc21 | 3.2 nM |
| CN(CC(=O)N1CCN(S(=O)(=O)c2cccc(Cl)c2)CC1CN1CCCC1)c1ccc(Cl)c(Cl)c1 (stereo unspecified) | 1240 nM |
| CCOc1cc2c(cc1S(=O)(=O)c1ccc(COc3ccc(C(F)(F)F)cc3)cc1)CCN(C)CC2 | 1020 nM |
| Nc1nc(N)c2c(ccc3c2ccn3Cc2cccc(F)c2)n1 | 3.2 nM |
| COc1cc(C)c(C(O)CNC(C)CCc2ccccc2)cc1C (stereo unspecified) | 730 nM |
| O=C(Nc1cccc(Cl)c1Cl)NC1CCN(Cc2cccc(O)c2)CC1 | 799 nM |
| CS(=O)(=O)N1CC2(CCN(CCC(NC(=S)Nc3ccccc3)c3ccc(Cl)c(Cl)c3)CC2)c2ccccc21 (stereo unspecified) | 826 nM |
| Cc1cc(C)c(CC(C)NCC(O)c2cccc(C(F)(F)F)c2)c(C)c1 (stereo unspecified) | 568 nM |
| O=C(NCC1CC1)C1CCN(C(c2ccccc2)c2nc3ccccc3s2)CC1 (stereo unspecified) | 1020 nM |
| Cn1cnc(CCNC(=O)c2cccc(-c3cccc(-c4nc5cc(C(F)(F)F)ccc5[nH]4)c3)c2)c1 | 700 nM |
| COc1cccc(-c2[nH]c3ccccc3c2CN2CCC(c3c(C)cccc3C)CC2)c1 | 1020 nM |
| O=C(NCc1ccccc1F)c1ccc(N2CCC(NCc3cccc(-n4cccn4)c3)CC2)cc1 | 1730 nM |
| CN1CCC(C(=O)Nc2ccc(-c3ccc(-c4nc5cc(C(F)(F)F)ccc5[nH]4)s3)cc2)CC1 | 987 nM |
| Cc1cccc2nc(-c3ccc(-c4ccc(CN5CCCC(N)C5)cc4)cc3)[nH]c12 (stereo unspecified) | 350 nM |
| Cc1nc(N)nc(N)c1CCCOc1ccccc1Cl | 224 nM |
| CN1CCc2ccc(NC(=O)Nc3ccc(-c4ccccc4)cc3)cc2C1 | 511 nM |
| CS(=O)(=O)c1ccc(CCNCc2ccc(-c3ccc(CNC4Cc5ccccc5C4)cc3)nc2)cc1 | 757 nM |
| COc1cc2nc(Nc3ccc(Oc4ccccc4)cc3)nc(Nc3ccc(Oc4ccccc4)cc3)c2cc1OC | 934 nM |

| SMILES | XC50 |
| --- | --- |
| Cc1cc(NCC2CCN(CC3CCCCC3)C2)nc(Nc2ccc(Cl)cc2)n1 (stereo unspecified) | 739 nM |
| CCOc1ccc(C(C)NC(=O)c2ccc(OC)c(Br)c2)cc1OCC (stereo unspecified) | 706 nM |
| O=C(Nc1ccc(F)cc1)NC1CCN(c2ccnc3cc(Cl)ccc23)CC1 | 408 nM |
| Cc1ccccc1C1CCN(C2CCC(NC(=O)c3ccc(-c4cccc(C(F)(F)F)c4)o3)CC2)CC1 (stereo unspecified) | 346 nM |
| O=C(NC1CC1)c1ccc(N2CCC(Cc3ccccc3)CC2)nc1 | 761 nM |
| CS(=O)(=O)CCCNCc1ccc(-c2cc3c(Nc4ccc(OCc5ccccc5)cc4)ncnc3cn2)o1 | 650 nM |
| O=C(c1cc(C(=O)NC2CCCCC2)c(=O)n(C2CCCCC2)c1)c1cc(F)ccc1O | 627 nM |
| COc1ccc2nc(-c3ccccc3)cc(NCCN(C)C)c2c1 | 731 nM |
| COc1ccc(CN2CCC(N3CC(c4ccccc4)(c4ccccc4)OCC3=O)C2)c(O)c1 (stereo unspecified) | 931 nM |
| Cc1nc2nc(N)nc(N)c2c(C)c1Cc1ccc(C(F)(F)F)cc1 | 747 nM |
| COCc1cc(C)nc2sc(C(=O)Nc3cc(C(C)(C)C)ccc3O)c(N)c12 | 714 nM |
| O=C(/C=C/c1ccc2ccccc2c1)NCC1(c2ccc(-c3ccccc3)cc2)CCOCC1 | 1520 nM |
| COc1ccccc1/C=C/C(=O)NCCC1CCN(CCCCCNC(=O)/C=C/c2ccc(Cl)c(Cl)c2)CC1 | 807 nM |
| CCc1c(CCNCCCCCCNCCc2ccc(Br)cc2)ccc(O)c1O | 903 nM |
| Cc1ccc2[nH]cc(/C=C/C(=O)NC3CCC(CCN4CCc5ccc(C#N)cc5CC4)CC3)c2c1 (stereo unspecified) | 916 nM |
| CC(=O)Nc1ccc(CN2CCC(NC(=O)c3ccc(-c4cccc(F)c4)s3)CC2)cc1 | 1430 nM |
| c1csc(-c2nc(N3CCCCC3)ncc2-c2ccsc2)n1 | 136 nM |
| COc1ccc2nccc([C@@H](O)CN3CCC(NCc4ccc5sc(=O)[nH]c5c4)CC3)c2c1 | 287 nM |
| CCOc1cc(Cc2cnc(N)nc2N)cc(Br)c1OC | 1440 nM |
| Oc1ccc(CN2Cc3ccccc3OC3(CCN(Cc4c[nH]c5cnccc45)CC3)C2)cc1 | 1170 nM |
| CN1CCN(CC(=O)Nc2cccc(-c3cccc(-c4nc5cc(C(F)(F)F)ccc5[nH]4)c3)c2)CC1 | 372 nM |
| Cn1nccc1C(=O)NCCNCc1ccc(-c2ccc(-c3nc4ccccc4[nH]3)s2)cc1 | 560 nM |
| CCn1cc(C(=O)O)c(=O)c2cc(F)c(N3CCN(S(=O)(=O)c4ccc(N)cc4)CC3)cc21 | 922 nM |
| O=C(NC1CCC(N2CCCC(OCc3ccccc3)C2)CC1)c1cc2ccccc2[nH]1 (stereo unspecified) | 1210 nM |

| SMILES | XC50 |
| --- | --- |
| OCCOCn1cnc2cnc(N[C@H]3OC[C@H](O)[C@@H](O)[C@@H]3O)nc21 | 1640 nM |
| COc1ccc2nccc([C@@H](O)CN3CCC(NCc4ccc5c(c4)nnn5C(C)C)CC3)c2c1 | 642 nM |
| CC(C)CNCc1cccc(-c2ccc(CNC3CCN(Cc4ccccc4)CC3)cc2)c1 | 271 nM |
| O=C(N[C@H]1CCN(Cc2ccc(OCCN3CCNCC3)c(Br)c2)C1)c1ccc(Cl)c(Cl)c1 | 484 nM |
| COc1cc2nc(N3CCC(CNC(=O)c4ccc(-c5ccccc5)cc4)CC3)nc(N)c2cc1OC | 574 nM |
| CCCc1cc(NCc2ccncc2)nc(Nc2ccc(F)cc2)n1 | 1120 nM |
| O=S(=O)(NCCN1CCCC1)c1ccc(-c2ccc(CN3Cc4ccccc4C3)cc2)s1 | 930 nM |
| COc1ccc(NC(=O)N2CCc3ccc(OCCN(C(C)C)C(C)C)cc32)cc1C(F)(F)F | 969 nM |
| COC(=O)c1cccc(CNCc2ccc(-c3ccc(-c4nc5cccc(C)c5[nH]4)s3)cc2)c1 | 402 nM |
| c1ccc2c(CNc3nc(NCC4CCCCC4)nc4[nH]cnc34)cccc2c1 | 888 nM |
| O=C(Nc1ccc(-c2cccc(-c3nc4ccccc4[nH]3)c2)cc1)Nc1ccc(Cl)c(Cl)c1 | 459 nM |
| COc1ccc(-c2ccc(NC(=O)c3cccc(Cl)c3)cc2)cc1CN(C)CCO | 710 nM |
| CCC(C)(C)NC(=O)C(c1cccc(OC)c1)N(C(=O)CNC(=O)c1cccs1)c1ccc2c(c1)OCCO2 (stereo unspecified) | 828 nM |
| Cc1c(CNCCCNc2nc3ccncc3[nH]2)sc(Br)c1Br | 1040 nM |
| CCOc1ncccc1CN1CCC(N2CCc3cc(NC(=O)c4cc(C)on4)ccc32)C1 (stereo unspecified) | 312 nM |
| CCOC(=O)c1cccc(NC(=O)Nc2cccc(-c3ncc(OCCCN)c4c3nc(-c3nonc3N)n4CC)c2)c1 | 894 nM |
| CC(C)(C)c1cc(C(=O)N2CCN(c3ccc(C(F)(F)F)cn3)CC2)n(Cc2ccc(F)cc2)n1 | 978 nM |
| Cc1cccc(C)c1CNc1nc(N2CCOCC2)cc2c(C)c(C)[nH]c12 | 1240 nM |
| N#Cc1ccc2[nH]cc(CN3CCC4(CC3)CN(CCNCc3ccccc3)C(=O)O4)c2c1 | 1160 nM |
| O=C(CCn1cncn1)N1CCCC(c2[nH]c3ccccc3c2-c2ccncc2)C1 (stereo unspecified) | 800 nM |
| CC(C)NCc1ccc(-c2ccc(CN3CCCC(c4ccccc4)C3)cc2)c(C(=O)NC2Cc3ccccc3C2)c1 (stereo unspecified) | 991 nM |
| CS(=O)(=O)Cc1ccc(Nc2nccc(-c3c(-c4cccc(NC(=O)C5CCCCC5)c4)nn4ncccc34)n2)cc1 | 201 nM |
| COc1cccc2cc(C(=O)N[C@@H](CC(C)C)C(=O)N[C@H](/C=N/N(C)C(=O)OC(C)(C)C)CC(=O)OC(C)(C)C)oc12 | 654 nM |
| COc1cc2nc(NCCN3CCOCC3)n3nc(-c4ccccc4)nc3c2cc1OC | 215 nM |

| SMILES | XC50 |
| --- | --- |
| COc1cc(Nc2ncnc3cc(OC)c(OC)cc23)cc([N+](=O)[O-])c1 | 810 nM |
| Cn1cccc1C(=O)C(=O)Nc1cccc(-c2ccc(-c3nc4cc(C(F)(F)F)ccc4[nH]3)cc2)c1 | 785 nM |
| COc1ccc(-c2cccc(NC(=O)c3cccs3)c2)cc1CN1CCCN(C)CC1 | 698 nM |
| O=S(=O)(c1ccc(OCc2ccc(Cl)cc2)cc1)c1cc2c(cc1OCc1ccccc1)CCN(CC1CC1)CC2 | 1110 nM |
| C=CCc1c(C(=O)NCC23CC4CC(CC(C4)C2)C3)nc2ccccc2c1O | 1030 nM |
| N=c1c2c(n(Cc3cccc(Cl)c3)c3c1CCC3)CCCC2 | 194 nM |
| CN1CCCN(Cc2cccc(-c3cccc(NC(=O)c4cccc(Cl)c4)c3)c2)CC1 | 889 nM |
| CNC(=O)CNC(=O)COc1cccc2ccccc12 | 226 nM |
| COC(=O)c1ccc2c(c1)nc(Nc1cccc(F)c1)n2CC(O)c1ccccn1 (stereo unspecified) | 728 nM |
| O=C(/C=C/c1ccc(Cl)c(Cl)c1)Nc1cccc(CN2CCC(c3c[nH]c4ccccc34)CC2)c1 | 670 nM |
| O=C(Nc1cccc(C(F)(F)F)c1)c1ccc(S(=O)(=O)NCC2CCCN2CC2CCCCC2)cc1 (stereo unspecified) | 751 nM |
| O=C(Nc1cccc(-c2nn3ncccc3c2-c2ccnc(Nc3cccc(-c4cnco4)c3)n2)c1)c1c(F)cccc1F | 166 nM |
| Cc1cccc2nc(-c3ccc(-c4ccc(NC(=O)CN5CCN(C)CC5)cc4)cc3)[nH]c12 | 785 nM |
| Cc1cnc(NC(=O)c2cn(-c3ccccc3)nc2-c2cccs2)s1 | 945 nM |
| Cc1c(S(=O)(=O)Nc2ccc3ccn(CCN(C)C)c3c2)sc2ccc(Cl)cc12 | 921 nM |
| CCCNCc1ccc(-c2ccc(CN(CCOC)C(=O)CCC(=O)c3ccc(OC)c(F)c3)cc2)nc1 | 683 nM |
| O=S(=O)(NC1CCN(c2ccnc3cc(Cl)ccc23)C1)c1cccs1 (stereo unspecified) | 697 nM |
| CCNc1cc(C)nc(Nc2ccc(NC(=O)Cc3ccc(OC)cc3)cc2)n1 | 1380 nM |
| O=C(Cc1c[nH]cn1)Nc1ccc(-c2ccc(-c3nc4cc(C(F)(F)F)ccc4[nH]3)s2)cc1 | 657 nM |
| Clc1ccc(/N=C(/NCCCCCCCN/C(=N\c2ccc(Cl)cc2)Nc2ccc(Cl)cc2)Nc2ccc(Cl)cc2)cc1 | 321 nM |
| COc1ccc2ncc(C#N)c(CCN3C4CCC3CC(NCc3ccc5c(n3)NC(=O)CS5)C4)c2c1 (stereo unspecified) | 810 nM |
| COc1ccc(CCN(C)CCCN2CCC(NC(=O)c3cccc4c(=O)c5ccccc5[nH]c34)CC2)cc1OC | 695 nM |
| COc1ccc(-c2cnc(N)c(-c3ccc(C(N)=O)cc3)c2)cc1OC | 897 nM |
| COc1ccc(CNC2CCN(C)CC2)cc1-c1ccc(S(=O)(=O)NCC2CCCO2)s1 (stereo unspecified) | 800 nM |

From ChEMBL document CHEMBL1157539, “Thousands of chemical starting points for antimalarial lead identification” (Nature, 2010)
